For the assay, the system named is WEHI-164. In words: Cytotoxicity against mouse WEHI164 cells. The assay is classed as functional, cell-based.

Some results are limits rather than exact numbers.

As a reminder, the IC50 is the concentration needed to halve the response being measured. A higher IC50 goes with weaker potency in that assay. `CCCCCCCCCCCCCCCCCC(=O)OC[C@H](CO[C@H]1O[C@H](CN)[C@@H](O)[C@H](O)[C@H]1O)OC(=O)CCCCCCCCCCCCCCCCC` [AVRAINVILLOSIDE]: the IC50 was over 10 µg/mL.

The record behind these values is ChEMBL document CHEMBL1158820, “Avrainvilloside, a 6-deoxy-6-aminoglucoglycerolipid from the green alga Avrainvillea nigricans” (J Nat Prod, 2005).
